Holding throughout (type): cell-based
In one assay the test system is Parental (Ba/F3). Kind of assay: Ba/F3 cell proliferation inhibition. Particulars: BaF3; 72 hours, Cell Counting Kit-8. The method, then:
(§1) […] lymphocyte cells, Parental (Ba/F3) and T315I-Bcr-Abl (Ba/F3) were seeded in 96-well plates at the density of 1×10^4/90 μL/well. A culture solution containing 9 concentrations (0.015 to 100 μM) of each example compound serially diluted in 3 folds or DMSO (control) were added to the plate ([…]) to a final concentration of 0 to 10 μM. The plate was incubated in a 37° C. CO2 incubator for 72 hours.
(§2) After incubation for 72 hours, the plate treated with the compound was treated with Cell Counting Kit-8 (Dojindo Molecular Technologies, Inc) solution at the concentration of 10 μL/well, and then mixed well. Then, the plate was incubated in a CO2 incubator at 37° C. for 2 hours, and absorbance at 450 nm was measured with a microplate reader. Data were expressed as percentage compared to vehicle treated cells and GI50 values were calculated using GraphPad Prism 5.0 (GraphPad software Inc., San Diego) […].
For orientation: Tetrazolium assays rely on reduction of a dye to a coloured formazan, in cell work by metabolically active cells.

The test system of another assay is T315I-Bcr-Abl (Ba/F3). Kind of assay: Ba/F3 cell proliferation inhibition. Particulars: BaF3; 72 hours, Cell Counting Kit-8. The method, then:
as §1, §2

The subject of another assay is TCCS cells. Kind of assay: human CML cell proliferation inhibition. Particulars: 72 hours, Cell Counting Kit-8. As to the method: (§3) In order to evaluate the therapeutic effect of the compound according to the present invention on chronic myelogenous leukemia (CML), the following experiment was performed, and the results are shown in Table 6 below. Inhibitory activity to Bcr-Abl kinase was evaluated through the experiment using TCCS and KOPM28 cells, and inhibitory activity to T315I-Bcr-Abl kinase was evaluated through the experiment using T315I-TCCS and T315I-KOPM28 cells.
(§4) Human chronic myelogenous leukemia (CML) cells used in the experiment were TCCS, T315I-TCCS, KOPM28 and T315I-KOPM28, and the four types of cells were provided by University of Yamanashi.
(§5) Four types of human CML cells were each seeded in 96-well plates at the density of 1×10^4/90 μL/well. A culture solution containing 9 concentrations (0.000256 to 100 μM) of each example compound serially diluted in 5 folds or DMSO (control) were added to the plate (10 μL/well) to a final concentration of 0 to 10 μM. The plate was incubated in a 37° C. CO2 incubator for 72 hours.
(§6) After incubation for 72 hours, the plate treated with the compound was treated with Cell Counting Kit-8 (Dojindo Molecular Technologies, Inc) solution at the concentration of 10 μL/well, and then mixed well. Then, the plate was incubated in a CO2 incubator at 37° C. for 2 hours, and absorbance at 450 nm was measured with a microplate reader. Data were expressed as percentage compared to vehicle treated cells and GI50 values were calculated using GraphPad Prism 8.0 (GraphPad software Inc., San Diego).

The subject of the next assay is T315I-KOPM28 cells. The experiment in a line: human CML cell proliferation inhibition. The conditions noted are these: 72 hours, Cell Counting Kit-8. As to the method:
as §3, §4, §5, §6

The next assay concerns KOPM28 cells. The experiment in a line: human CML cell proliferation inhibition. The conditions noted are these: 72 hours, Cell Counting Kit-8. The method, then: as §3, §4, §5, §6
The subject of another assay is T315I-TCCS cells. Kind of assay: human CML cell proliferation inhibition. The conditions noted are these: 72 hours, Cell Counting Kit-8. The method, then: as §3, §4, §5, §6

Bounds are passed on as bounds.

As for `Cc1c(F)cc(C(=O)Nc2cc(Oc3ccncc3)cc(C(F)(F)F)c2)cc1C#Cc1cnc2c(Nc3cnn(C)c3)cccn12` [Example 8, 3-fluoro-4-methyl-5-((8-((1-methyl-1H-pyrazol-4-yl)amino)imidazo[1,2-a]pyridin-3-yl)ethynyl)-N-(3-(pyridin-4-yloxy)-5-(trifluoromethyl)phenyl)benzamide], the GI50 was more than 5000 nM in the assay on Parental (Ba/F3); less than 50 nM in the assay on T315I-Bcr-Abl (Ba/F3); less than 10 nM with TCCS cells; 100 nM with T315I-KOPM28 cells; less than 10 nM in the assay on KOPM28 cells; 100 nM in the assay on T315I-TCCS cells.
Take `Cc1cc(F)c(C(=O)Nc2cc(CN3CCN(CCO)CC3)cc(C(F)(F)F)c2)cc1C#Cc1cnc2c(Nc3cn[nH]c3)cccn12` [Example 106, 5-((8-((1H-pyrazol-4-yl)amino)imidazo[1,2-a]pyridin-3-yl)ethynyl)-2-fluoro-N-(3-((4-(2-hydroxyethyl)piperazin-1-yl)methyl)-5-(trifluoromethyl)phenyl)-4-methylbenzamide]: the GI50 is more than 5000 nM with Parental (Ba/F3); 50 to 500 nM in the assay on T315I-Bcr-Abl (Ba/F3); less than 10 nM in the assay on TCCS cells; more than 100 nM with T315I-KOPM28 cells; less than 10 nM in the assay with KOPM28 cells; 100 nM in the assay on T315I-TCCS cells.
For `Cc1cn(-c2cc(NC(=O)c3ccc(C)c(C#Cc4cnc5c(Nc6cnn(C)c6)cccn45)c3F)cc(C(F)(F)F)c2)cn1` [Example 6, 2-fluoro-4-methyl-N-(3-(4-methyl-1H-imidazol-1-yl)-5-(trifluoromethyl)phenyl)-3-((8-((1-methyl-1H-pyrazol-4-yl)amino)imidazo[1,2-a]pyridin-3-yl)ethynyl)benzamide], the GI50 with Parental (Ba/F3) was more than 5000 nM; with T315I-Bcr-Abl (Ba/F3), 50 to 500 nM; in the assay on TCCS cells, less than 10 nM; in the assay on T315I-KOPM28 cells, more than 100 nM; in the assay with KOPM28 cells, 100 nM; in the assay on T315I-TCCS cells it was 100 nM.
Regarding `Cc1c(F)cc(C(=O)Nc2cc(CN3CCN(CCO)CC3)cc(C(C)(C)C#N)c2)cc1C#Cc1cnc2c(Nc3cnn(C)c3)cccn12` [Example 11, N-(3-(2-cyanopropan-2-yl)-5-((4-(2-hydroxyethyl)piperazin-1-yl)methyl)phenyl)-3-fluoro-4-methyl-5-((8-((1-methyl-1H-pyrazol-4-yl)amino)imidazo[1,2-a]pyridin-3-yl)ethynyl)benzamide], the GI50 was more than 5000 nM with Parental (Ba/F3); less than 50 nM with T315I-Bcr-Abl (Ba/F3); less than 10 nM in the assay on TCCS cells; 100 nM in the assay with T315I-KOPM28 cells; less than 10 nM with KOPM28 cells; less than 10 nM with T315I-TCCS cells.
For `Cc1cc(F)c(C(=O)Nc2ccc(CN3CCN(C)CC3)c(C(C)(C)C#N)c2)cc1C#Cc1cnc2c(Nc3cn[nH]c3)cccn12` [Example 90, 5-((8-((1H-pyrazol-4-yl)amino)imidazo[1,2-a]pyridin-3-yl)ethynyl)-N-(3-(2-cyanopropan-2-yl)-4-((4-methylpiperazin-1-yl)methyl)phenyl)-2-fluoro-4-methylbenzamide], the GI50 in the assay on Parental (Ba/F3) was 50 to 500 nM; in the assay with T315I-Bcr-Abl (Ba/F3), less than 50 nM; in the assay on TCCS cells, less than 10 nM; in the assay with T315I-KOPM28 cells it was 100 nM; in the assay with KOPM28 cells it was less than 10 nM; with T315I-TCCS cells it was 100 nM.
Regarding `Cc1cc(F)c(C(=O)Nc2ccc(CN3CCN(C)CC3)c(C(F)(F)F)c2)cc1C#Cc1cnc2c(Nc3cnn(C)c3)cccn12` [Example 55, 2-fluoro-4-methyl-5-((8-((1-methyl-1H-pyrazol-4-yl)amino)imidazo[1,2-a]pyridin-3-yl)ethynyl)-N-(4-((4-methylpiperazin-1-yl)methyl)-3-(trifluoromethyl)phenyl)benzamide], the GI50 with Parental (Ba/F3) is 500 to 5000 nM; with T315I-Bcr-Abl (Ba/F3), less than 50 nM; in the assay on TCCS cells it was less than 10 nM; with T315I-KOPM28 cells, less than 10 nM; in the assay on KOPM28 cells it was less than 10 nM; in the assay on T315I-TCCS cells, less than 10 nM.

What is called GI50 is the concentration that inhibits growth by half.

(Values after patent publication US12673945B2, “3-((8-((1H-pyrazol-4-yl)amino)imidazo[1,2-a]pyridin-3-yl)ethinyl)-n-phenylbenzamide derivative, method for preparing same, and pharmaceutical composition containing same as active ingredient for prevention or treatment of cancer” (DAEGU-GYEONGBUK MEDICAL INNOVATION FOUNDATION, priority 2020, dated 2026).)
